Tests used:
[1] = system: Pseudomonas aeruginosa; assay: Anti-virulence effect in Pseudomonas aeruginosa PAO1 assessed as inhibition of rhamnolipid production at 10 uM relative to control; type: functional; set-up: scale not given: the % may be the effect or the level left
[2] = system: Pseudomonas aeruginosa; assay: Anti-virulence activity against Pseudomonas aeruginosa PAO1-L assessed as reduction in pyocyanin production at 10 uM incubated for 24 hrs by absorbance based analysis relative to control; type: functional; set-up: scale not given: the % may be the effect or the level left
[3] = system: Bacillus subtilis; assay: Antibacterial activity against Bacillus subtilis; type: functional
[4] = system: Bacillus pumilus; assay: Antibacterial activity against Bacillus pumilus; type: functional
[5] = system: Staphylococcus aureus; assay: Antibacterial activity against Methicillin-sensitive Staphylococcus aureus; type: functional
[6] = system: Escherichia coli; assay: Antibacterial activity against Escherichia coli; type: functional
[7] = system: Pseudomonas aeruginosa; assay: Antibacterial activity against Pseudomonas aeruginosa; type: functional
[8] = system: Pseudomonas aeruginosa; assay: Antivirulence activity against Pseudomonas aeruginosa PAO1 assessed as reduction in pyocyanin level at 10 uM relative to control; type: functional; set-up: scale not given: the % may be the effect or the level left
[9] = system: Pseudomonas aeruginosa; assay: Antibacterial activity against Pseudomonas aeruginosa ATCC 15442 assessed as reduction in bacterial cell growth incubated for 24 hrs by two fold serial microdilution method; type: functional
[10] = system: Pseudomonas aeruginosa; assay: Antibiofilm activity against Pseudomonas aeruginosa PAO1 assessed as inhibition of biofilm formation at 32 ug/ml incubated for 8 hrs by crystal violet staining based assay relative to control; type: functional; set-up: scale not given: the % may be the effect or the level left; details: dose 32 µg/ml
[11] = system: Pseudomonas aeruginosa; assay: Antibacterial activity against Pseudomonas aeruginosa ATCC 27853 assessed as bacterial growth inhibition by agar diffusion assay; type: functional
[12] = target: T1, Transcriptional activator protein LasR (Pseudomonas aeruginosa (strain ATCC 15692 / PAO1 / 1C / PRS 101 / LMG12228)) (UniProt P25084); assay: Inhibition of LasR-mediated quorum sensing system in Pseudomonas aeruginosa PAO1 at 128 ug/ml relative to control; details: dose 128.0 µg/ml
T1 sequence (whole entry): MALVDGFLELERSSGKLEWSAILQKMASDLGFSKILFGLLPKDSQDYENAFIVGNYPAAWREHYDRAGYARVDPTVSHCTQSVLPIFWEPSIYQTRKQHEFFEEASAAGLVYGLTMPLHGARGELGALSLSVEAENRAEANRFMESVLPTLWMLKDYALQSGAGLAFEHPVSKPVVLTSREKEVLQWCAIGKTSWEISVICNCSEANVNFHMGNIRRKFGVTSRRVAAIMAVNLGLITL

[13] = Inhibition of quorum sensing system in Pseudomonas aeruginosa PAO1 expressing lasB-gfp

Question: Which Activity [1] does the source give for `CCCCCCCCC(=O)NNC(=O)Cn1c(=O)oc2ccccc21` here?
Answer: Its Activity is 6.34%.

Question: Which Activity [2] does the source give for `C=CCSSc1nc2ccccc2s1` here?
Answer: The Activity was 46%.

Question: What does the source list for `O=C(CCCCCOc1ccc(C(F)(F)F)cc1)NN1C(=O)CN(c2ccccc2O)C1=O`?
Answer: MIC [3]: > 512 µg/mL; MIC [4]: > 512 µg/mL; MIC [5]: > 512 µg/mL; MIC [6]: > 512 µg/mL; MIC [7]: > 512 µg/mL; Activity [8]: 38.62%

Question: With `O=C(CCCCCOc1cccc(C(F)(F)F)c1)NNC(=O)Cn1c(=O)oc2ccccc21` as the molecule, how does the Activity [1] read?
Answer: The Activity was 2.53%.

Question: For `Clc1ccc2c(NCCCCCCNCCc3ccccc3)ccnc2c1`, which MIC [9] is on record?
Answer: The MIC was greater than 2 µM.

Question: With `CCCCCCCCSSc1nc2ccccc2c(=O)n1-c1ccccc1` as the molecule, how does the Activity [2] read?
Answer: The Activity was 94%.

Question: Which Activity [10] does the source give for `[O-][S+](Cc1cccc(Cl)c1)c1nnc(-c2ccccc2)o1` (stereo unspecified) here?
Answer: The Activity was 40.6%.

Question: For `O=C(CSc1ccc2ccccc2n1)c1ccccc1`, which MIC [11] is on record?
Answer: Its MIC is greater than 128 µg/mL.

Question: With `O=C(CSc1nc2ccccc2s1)c1ccccc1` as the molecule, how does the MIC [11] read?
Answer: The MIC was greater than 128 µg/mL.

Question: With `O=C(CN1CCOCC1)Oc1ccccc1[N+](=O)[O-]` as the molecule, how does the inhibition [12] read?
Answer: The inhibition was 50.2%.

Question: For `CCCCCCSSc1nc2ccccc2c(=O)[nH]1`, which Activity [2] is on record?
Answer: Its Activity is 94%.

Question: With `[O-][S+](Cc1ccc2c(O)cccc2c1)c1nnc(-c2ccccc2)o1` (stereo unspecified) as the molecule, how does the Activity [10] read?
Answer: Its Activity is 40.88%.

Question: Which Activity [10] does the source give for `O=[N+]([O-])c1ccc(C[S+]([O-])c2nnn(-c3ccccc3)n2)cc1` (stereo unspecified) here?
Answer: Its Activity is 1.64%.

Question: With `CCCCCCSSc1nc2cccc(Cl)c2c(=O)n1-c1ccccc1` as the molecule, how does the Activity [2] read?
Answer: Its Activity is 94%.

Question: For `CN1CCN(CC(=O)Oc2cccc([N+](=O)[O-])c2)CC1`, which inhibition [12] is on record?
Answer: The inhibition was 78.8%.

Question: With `Clc1ccc(CNCCCCCCCCNc2ccnc3cc(Cl)ccc23)cc1` as the molecule, how does the MIC [9] read?
Answer: Its MIC is greater than 2 µM.

Question: For `Cc1ccc(C[S+]([O-])c2nnn(-c3ccccc3)n2)cc1` (stereo unspecified), which Activity [10] is on record?
Answer: The Activity was 1.64%.

Question: Which Activity [10] does the source give for `[O-][S+](Cc1ccc(Cl)cc1)c1nc2ccccc2s1` (stereo unspecified) here?
Answer: Its Activity is 40.6%.

Question: Which MIC [9] does the source give for `NCCCCCCCCCCCCNc1ccnc2cc(Cl)ccc12` here?
Answer: The MIC was greater than 2 µM.

Question: With `CCCCSSc1nc2cccc(Cl)c2c(=O)n1-c1ccccc1` as the molecule, how does the Activity [2] read?
Answer: The Activity was 94%.

Question: Which Activity [10] does the source give for `[O-][S+](Cc1ccccc1)c1nnn(-c2ccccc2)n1` (stereo unspecified) here?
Answer: Its Activity is 1.64%.

Question: What does the source list for `O=C(CCCCCOc1ccc(Cl)cc1)NN1C(=O)CN(c2ccccc2O)C1=O`?
Answer: MIC [3]: > 512 µg/mL; MIC [4]: > 512 µg/mL; MIC [5]: > 512 µg/mL; MIC [6]: > 512 µg/mL; MIC [7]: > 512 µg/mL; Activity [1]: 2.76%

Question: Which MIC [3] does the source give for `O=C(CCCCCOc1cccc(C(F)(F)F)c1)NN1C(=O)CN(c2ccccc2O)C1=O` here?
Answer: The MIC was greater than 512 µg/mL.

Question: What about the MIC [4] of the same molecule?
Answer: Its MIC is greater than 512 µg/mL.

Question: And the MIC [5]?
Answer: The MIC was greater than 512 µg/mL.

Question: What about the MIC [6] of the same molecule?
Answer: The MIC was greater than 512 µg/mL.

Question: What about the Activity [8] of the same molecule?
Answer: Its Activity is 38.62%.

Question: With `Clc1ccc2c(NCCCCCCNCc3ccccc3)ccnc2c1` as the molecule, how does the MIC [9] read?
Answer: The MIC was greater than 2 µM.

Question: For `[O-][S+](Cc1ccc(F)cc1)c1nnn(-c2ccccc2)n1` (stereo unspecified), which Activity [10] is on record?
Answer: The Activity was 1.64%.

Question: Which inhibition [12] does the source give for `O=C(OCCN1CCOCC1)c1cccc([N+](=O)[O-])c1` here?
Answer: The inhibition was 92.3%.

Question: For `CCCCSSc1nc2ccccc2c(=O)[nH]1`, which Activity [2] is on record?
Answer: The Activity was 94%.

Question: For `[O-][S+](Cc1ccc(C(F)(F)F)cc1)c1nnn(-c2ccccc2)n1` (stereo unspecified), which Activity [10] is on record?
Answer: Its Activity is 1.64%.

Question: Which IC50 [13] does the source give for `O=c1c2cc(C(F)(F)F)ccc2ncn1CC(O)COc1ccccc1` (stereo unspecified) here?
Answer: Its IC50 is 600 nM.

Question: For `O=c1c2cc([N+](=O)[O-])ccc2ncn1CC(O)COc1ccccc1` (stereo unspecified), which IC50 [13] is on record?
Answer: The IC50 was 600 nM.

Question: With `O=C(CN1CCOCC1)Oc1cccc([N+](=O)[O-])c1` as the molecule, how does the inhibition [12] read?
Answer: The inhibition was 61.6%.

Question: For `CC(C)(C)c1cccc(OC(=O)CN2CCOCC2)c1`, which inhibition [12] is on record?
Answer: The inhibition was 50.2%.

Question: Which results are given for `CCCCCCCCCCCC(=O)NN1C(=O)CN(c2ccccc2O)C1=O`?
Answer: MIC [3]: > 512 µg/mL; MIC [4]: > 512 µg/mL; MIC [5]: > 512 µg/mL; MIC [6]: > 512 µg/mL; MIC [7]: > 512 µg/mL

Question: Which Activity [10] does the source give for `[O-][S+](Cc1ccc(Br)cc1)c1nnn(-c2ccccc2)n1` (stereo unspecified) here?
Answer: Its Activity is 1.64%.

Question: For `O=C(CCCCCOc1ccc(F)cc1)NNC(=O)Cn1c(=O)oc2ccccc21`, which Activity [1] is on record?
Answer: The Activity was 2.53%.

Question: With `COc1cccc(C[S+]([O-])c2nnc(-c3ccccc3)o2)c1` (stereo unspecified) as the molecule, how does the Activity [10] read?
Answer: Its Activity is 21.94%.

Question: With `O=C(CCN1CCOCC1)Oc1cccc([N+](=O)[O-])c1` as the molecule, how does the inhibition [12] read?
Answer: Its inhibition is 78.8%.

Question: Which IC50 [13] does the source give for `O=c1c2cc(Cl)c(Cl)cc2ncn1CC(O)COc1ccccc1` (stereo unspecified) here?
Answer: Its IC50 is 600 nM.

Question: For `CCCCCCSSc1nc2ccccc2c(=O)n1-c1ccccc1`, which Activity [2] is on record?
Answer: Its Activity is 94%.

Question: With `[O-][S+](Cc1cccc(Cl)c1)c1nnn(-c2ccccc2)n1` (stereo unspecified) as the molecule, how does the Activity [10] read?
Answer: The Activity was 1.64%.

Question: Which MIC [9] does the source give for `Clc1ccc2c(NCCCCCCCCNCc3ccccc3Cl)ccnc2c1` here?
Answer: Its MIC is greater than 2 µM.

Question: With `CCCCCCCCSSc1nc2ccccc2c(=O)n1C1CC1` as the molecule, how does the Activity [2] read?
Answer: The Activity was 94%.

Question: With `Clc1ccc2c(NCCCCCCCCCCCCNCc3ccccc3)ccnc2c1` as the molecule, how does the MIC [9] read?
Answer: Its MIC is greater than 2 µM.

Question: Which Activity [2] does the source give for `CCCCCCCCCc1nc2cc(Cl)ccc2c(=O)n1N` here?
Answer: Its Activity is 46%.

Question: With `COc1cc(C[S+]([O-])c2nnc(-c3ccccc3)o2)cc(OC)c1` (stereo unspecified) as the molecule, how does the Activity [10] read?
Answer: Its Activity is 21.94%.

Question: Which MIC [9] does the source give for `Clc1ccc2c(NCCCCCCCCNCc3ccccc3)ccnc2c1` here?
Answer: Its MIC is greater than 2 µM.

Question: With `[O-][S+](Cc1ccccc1Cl)c1nnc(-c2ccccc2)o1` (stereo unspecified) as the molecule, how does the Activity [10] read?
Answer: Its Activity is 40.6%.

Question: For `COc1ccc(C(=O)CSc2ccc3ccccc3n2)c(OC)c1`, which MIC [11] is on record?
Answer: Its MIC is greater than 128 µg/mL.
